Key:
Format in all cases: cell-based, Escherichia coli
EKO-35 araC::emrAB = experiment: MIC susceptibility profiling, efflux platform; conditions: for Fold change of MICs: EKO-35 araC::emrAB compared to EKO-35
Method in brief: (§1)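 Overnight LB cultures (37 °C, 18 h) were resuspended in PBS pH 7.4 to OD600 ~1.0 and diluted 1/2000 into MHB II. Strains were exposed to 2-fold serial compound dilutions in duplicate for 18 h at 37 °C with shaking. MIC was read from OD600 after subtracting pre-incubation background.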

EKO-35 araC::mdtEF = experiment: MIC susceptibility profiling, efflux platform; conditions: for Fold change of MICs: EKO-35 araC::mdtEF compared to EKO-35
Method in brief: as §1

EKO-35 araC::macAB = experiment: MIC susceptibility profiling, efflux platform; conditions: for Fold change of MICs: EKO-35 araC::macAB compared to EKO-35
Method in brief: as §1

EKO-35 araC::emrKY = experiment: MIC susceptibility profiling, efflux platform; conditions: for Fold change of MICs: EKO-35 araC::emrKY compared to EKO-35
Method in brief: as §1

EKO-35 araC::acrBD408A = experiment: MIC susceptibility profiling, efflux platform; conditions: for Fold change of MICs: EKO-35 araC::acrBD408A compared to EKO-35
Method in brief: as §1

EKO-35 araC::acrEF = experiment: MIC susceptibility profiling, efflux platform; conditions: for Fold change of MICs: EKO-35 araC::acrEF compared to EKO-35
Method in brief: as §1

wild-type (WT) K-12-Pore = experiment: microbe, parasite or virus in culture; conditions: technical duplicate
Method in brief: (§2)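 E. coli strains carrying a genomically integrated constitutive fhuA ΔC/Δ4L pore were grown 18 h in LB at 37 °C, then diluted 1/2000 in MHB II from OD600 ~1.0. Compounds were tested in duplicate, 2-fold serial titration, for 18 h at 37 °C with shaking. MIC came from OD600 with the pre-incubation background subtracted.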

ΔtolC-Pore = experiment: microbe, parasite or virus in culture; conditions: for Minimum inhibitory concentration (MIC), Pore ΔtolC: Table 10, with pore
Method in brief: as §2

EKO-35 araC::emrAB Pore = experiment: MIC susceptibility profiling, porinated efflux platform; conditions: for Fold changes of MICs: EKO-35 araC::emrAB Pore compared to EKO-35-Pore
Method in brief: as §2

[1] = system: EKO-35 araC::acrBD408A Pore; experiment: as above; conditions: for Fold changes of MICs: EKO-35 araC::acrBD408A Pore compared to EKO-35-Pore
Method in brief: as §2

EKO-35 araC::acrEF Pore = experiment: as above
Method in brief: as §2

EKO-35 araC::mdtEF Pore = experiment: as above; conditions: for Fold changes of MICs: EKO-35 araC::mdtEF Pore compared to EKO-35-Pore
Method in brief: as §2

EKO-35 araC::emrKY Pore = experiment: as above; conditions: for Fold changes of MICs: EKO-35 araC::emrKY Pore compared to EKO-35-Pore
Method in brief: as §2

EKO-35 araC::acrD Pore = experiment: as above; conditions: for Fold changes of MICs: EKO-35 araC::acrD Pore compared to EKO-35-Pore
Method in brief: as §2

EKO-35 araC::mexCD Pore = experiment: as above; conditions: for Fold changes of MICs: EKO-35 araC::mexCD Pore compared to EKO-35-Pore
Method in brief: as §2

EKO-35 araC::mdtBC Pore = experiment: as above; conditions: for Fold changes of MICs: EKO-35 araC::mdtBC Pore compared to EKO-35-Pore
Method in brief: as §2

EKO-35 araC::macAB Pore = experiment: as above; conditions: for Fold changes of MICs: EKO-35 araC::macAB Pore compared to EKO-35-Pore
Method in brief: as §2

EKO-35 araC::acrB Pore = experiment: as above; conditions: for Fold changes of MICs: EKO-35 araC::acr-B Pore compared to EKO-35-Pore
Method in brief: as §2

[2] = Table 13B, non-porinated, technical duplicate
[3] = Table 13A, non-porinated, technical duplicate
[4] = Table 14A, porinated, technical duplicate

deoxycholate
Fold change of MICs (EKO-35 araC::emrAB): 4 fold | Minimum Inhibitory Concentration, EKO-35 araC::emrAB (EKO-35 araC::emrAB; [2]): 1500 µg/mL | Fold change of MICs (EKO-35 araC::mdtEF): 4 fold | Minimum Inhibitory Concentration, EKO-35 araC::mdtEF (EKO-35 araC::mdtEF; [3]): 1500 µg/mL | Fold change of MICs (EKO-35 araC::macAB): 1 fold | Minimum Inhibitory Concentration, EKO-35 araC::macAB (EKO-35 araC::macAB; [2]): 187.5 µg/mL | Fold change of MICs (EKO-35 araC::emrKY): 1 fold | efflux pump-mediated resistance vs EKO-35 (EKO-35 araC::emrKY; EmrKY): could not substantiate | Minimum Inhibitory Concentration, EKO-35 araC::emrKY (EKO-35 araC::emrKY; [2]): 375 µg/mL | Fold change of MICs (EKO-35 araC::acrBD408A): 1 fold | Minimum Inhibitory Concentration, EKO-35 araC::acrBD408A (EKO-35 araC::acrBD408A; [2]): 375 µg/mL | Fold change of MICs (EKO-35 araC::acrEF): 4 fold | Minimum Inhibitory Concentration, EKO-35 araC::acrEF (EKO-35 araC::acrEF; [3]): 1500 µg/mL | Minimum inhibitory concentration (MIC), Pore K-12 (wild-type (WT) K-12-Pore; Table 10, with pore): 1500 µg/mL | Minimum inhibitory concentration, K-12 (WT)-Pore (wild-type (WT) K-12-Pore; Table 14A, porinated): 1500 µg/mL | Minimum inhibitory concentration (MIC), Pore ΔtolC (ΔtolC-Pore; technical duplicate): 46.875 µg/mL | Minimum inhibitory concentration, ΔtolC-Pore (ΔtolC-Pore; [4]): 46.875 µg/mL | Fold changes of MICs (EKO-35 araC::emrAB Pore): 4 fold | Minimum inhibitory concentration (EKO-35 araC::emrAB Pore; EKO-35 araC::emrAB Pore, technical duplicate): 750 µg/mL | Fold changes of MICs [1]: 1 fold | Minimum inhibitory concentration ([1]; EKO-35 araC::acrBD408A Pore, technical duplicate): 93.75 µg/mL | Minimum inhibitory concentration, EKO-35 araC::acrEF Pore (EKO-35 araC::acrEF Pore; [4]): 1500 µg/mL | Fold changes of MICs (EKO-35 araC::mdtEF Pore): 8 fold | Minimum inhibitory concentration, EKO-35 araC::mdtEF Pore (EKO-35 araC::mdtEF Pore; [4]): 1500 µg/mL | Fold changes of MICs (EKO-35 araC::emrKY Pore): 1 fold | Minimum inhibitory concentration (EKO-35 araC::emrKY Pore; EKO-35 araC::emrKY Pore, technical duplicate): 187.5 µg/mL | Fold changes of MICs (EKO-35 araC::acrD Pore): 8 fold | Minimum inhibitory concentration, EKO-35 araC::acrD Pore (EKO-35 araC::acrD Pore; [4]): 1500 µg/mL | Fold changes of MICs (EKO-35 araC::mexCD Pore): 2 fold | Minimum inhibitory concentration (EKO-35 araC::mexCD Pore; EKO-35 araC::mexCD Pore, technical duplicate): 375 µg/mL | efflux pump-mediated resistance vs EKO-35-Pore (EKO-35 araC::mexCD Pore; MexCD, OM compromised): no longer associated MexCD with resistance | Fold changes of MICs (EKO-35 araC::mdtBC Pore): 4 fold | Minimum inhibitory concentration (EKO-35 araC::mdtBC Pore; EKO-35 araC::mdtBC Pore, technical duplicate): 750 µg/mL | Fold changes of MICs (EKO-35 araC::macAB Pore): 1 fold | Minimum inhibitory concentration (EKO-35 araC::macAB Pore; EKO-35 araC::macAB Pore, technical duplicate): 187.5 µg/mL | Fold changes of MICs (EKO-35 araC::acrB Pore): 8 fold | Minimum inhibitory concentration, EKO-35 araC::acrB Pore (EKO-35 araC::acrB Pore; [4]): 1500 µg/mL

CC1(C)S[C@@H]2[C@H](NC(=O)[C@H](N)c3ccccc3)C(=O)N2[C@H]1C(=O)O [ampicillin]
Fold change of MICs (EKO-35 araC::emrAB): 1 fold | MIC (EKO-35 araC::emrAB; Escherichia coli, Table 13B, non-porinated, technical duplicate, read-out: Minimum Inhibitory Concentration, EKO-35 araC::emrAB): 25 µg/mL | Fold change of MICs (EKO-35 araC::mdtEF): 1 fold | MIC (EKO-35 araC::mdtEF; Escherichia coli, Table 13A, non-porinated, technical duplicate, read-out: Minimum Inhibitory Concentration, EKO-35 araC::mdtEF): 25 µg/mL | Fold change of MICs (EKO-35 araC::macAB): 1 fold | Fold change of MICs (EKO-35 araC::emrKY): 1 fold | MIC (EKO-35 araC::emrKY; Escherichia coli, Table 13B, non-porinated, technical duplicate, read-out: Minimum Inhibitory Concentration, EKO-35 araC::emrKY): 25 µg/mL | Fold change of MICs (EKO-35 araC::acrBD408A): 1 fold | MIC (EKO-35 araC::acrBD408A; Escherichia coli, Table 13B, non-porinated, technical duplicate, read-out: Minimum Inhibitory Concentration, EKO-35 araC::acrBD408A): 25 µg/mL | Fold change of MICs (EKO-35 araC::acrEF): 2 fold | MIC (EKO-35 araC::acrEF; Escherichia coli, Table 13A, non-porinated, technical duplicate, read-out: Minimum Inhibitory Concentration, EKO-35 araC::acrEF): 50 µg/mL | MIC (wild-type (WT) K-12-Pore; Escherichia coli, Table 10, with pore, read-out: Minimum inhibitory concentration (MIC), Pore K-12): 12.5 µg/mL | MIC (ΔtolC-Pore; Escherichia coli, 18 h, read-out: Minimum inhibitory concentration, ΔtolC-Pore): 1.56 µg/mL | Minimum inhibitory concentration (MIC), Pore ΔtolC (ΔtolC-Pore; technical duplicate): 1.563 µg/mL | Fold changes of MICs (EKO-35 araC::emrAB Pore): 1 fold | MIC (EKO-35 araC::emrAB Pore; Escherichia coli, EKO-35 araC::emrAB Pore, technical duplicate, read-out: Minimum inhibitory concentration): 0.781 µg/mL | Fold changes of MICs [1]: 1 fold | MIC ([1]; Escherichia coli, EKO-35 araC::acrBD408A Pore, technical duplicate, read-out: Minimum inhibitory concentration): 0.781 µg/mL | Fold changes of MICs (EKO-35 araC::acrEF Pore; EKO-35 araC::acrEF Pore compared to EKO-35-Pore): 2 fold | MIC (EKO-35 araC::acrEF Pore; Escherichia coli, Table 14A, porinated, technical duplicate, read-out: Minimum inhibitory concentration, EKO-35 araC::acrEF Pore): 3.12 µg/mL | Fold changes of MICs (EKO-35 araC::mdtEF Pore): 1 fold | MIC (EKO-35 araC::mdtEF Pore; Escherichia coli, Table 14A, porinated, technical duplicate, read-out: Minimum inhibitory concentration, EKO-35 araC::mdtEF Pore): 1.56 µg/mL | Fold changes of MICs (EKO-35 araC::emrKY Pore): 2 fold | MIC (EKO-35 araC::emrKY Pore; Escherichia coli, EKO-35 araC::emrKY Pore, technical duplicate, read-out: Minimum inhibitory concentration): 3.12 µg/mL | Fold changes of MICs (EKO-35 araC::acrD Pore): 16 fold | MIC (EKO-35 araC::acrD Pore; Escherichia coli, Table 14A, porinated, technical duplicate, read-out: Minimum inhibitory concentration, EKO-35 araC::acrD Pore): 25 µg/mL | Fold changes of MICs (EKO-35 araC::mexCD Pore): 1 fold | MIC (EKO-35 araC::mexCD Pore; Escherichia coli, EKO-35 araC::mexCD Pore, technical duplicate, read-out: Minimum inhibitory concentration): 1.56 µg/mL | Fold changes of MICs (EKO-35 araC::mdtBC Pore): 1 fold | MIC (EKO-35 araC::mdtBC Pore; Escherichia coli, EKO-35 araC::mdtBC Pore, technical duplicate, read-out: Minimum inhibitory concentration): 0.781 µg/mL | Fold changes of MICs (EKO-35 araC::macAB Pore): 1 fold | MIC (EKO-35 araC::macAB Pore; Escherichia coli, EKO-35 araC::macAB Pore, technical duplicate, read-out: Minimum inhibitory concentration): 1.56 µg/mL | Fold changes of MICs (EKO-35 araC::acrB Pore): 8 fold
